According to patent publication US20240034753A1, “THERAPEUTIC PEPTIDES” (COHBAR, INC., priority 2020, published 2024):
Square brackets hold non-standard residues; d marks the D form. Ends that are not written are not given here. Peptide text beside a SMILES is read from it.

Tests used:
[1] = tested on: SH-SY5Y Neuroblastoma Cells; test: ATP levels (CellTiter-Glo); type: cell-based, human; conditions: peptide 10 μM, 18-20 hours, relative to 0.1% DMSO treated control
Experimental: The effect of the peptides on cellular metabolism can be assessed using an assay of ATP levels in cultured cells such as human neuroblastoma cells. Peptides were initially prepared as 10 mM stock in DMSO and used at a final concentration of 10 μM (0.1% DMSO). […] CellTiter-Glo® Assay kit was purchased from Promega. SH-SY5Y human bone marrow neuroblastoma cell line was purchased from American Type Culture Collection (Manassas, VA) and licensed from Memorial Sloan-Kettering Cancer Center (New York, NY). SH-SY5Y cells were grown in DMEM/F12 medium supplemented with 10% FBS with 100 IU/ml penicillin and 100 μg/ml streptomycin. Cultures were maintained at 37° C. in a humidified atmosphere of 5% CO2/95% air. SH-SY5Y cells were seeded at 30,000 cells per well on 96-well plates. […] ATP levels were determined using a CellTiter-Glo Assay kit (Promega) according to the manufacturer's instructions. Luminescence for each sample well on the plate was measured using a Cytation 3 plate reader (BioTek, Winooski, VT). Activity was calculated relative to 0.1% DMSO treated control. The relative standard deviation of the result for the 0.1% DMSO treated control was <5%.

[2] = tested on: A172 human brain glioblastoma cell line; test: Caspase-Glo 3/7 assay of caspase 3/7 activity in cultured cells; type: cell-based; conditions: peptide 10 μM, 18-20 hours, relative to 0.1% DMSO control
Experimental: The effect of the peptides on cell death/survival can be assessed using a […] assay in cultured cells. Peptides were dissolved at 10 mM in DMSO as stock solutions for use at a final concentration of 10 μM. […] Caspase-Glo 3/7 Assay Reagent was purchased from Promega (Madison, WI). A172 human brain glioblastoma cell line was purchased from American Type Culture Collection (Manassas, VA). A172 cells were grown in DMEM supplemented with 10% FBS with 100 IU/ml penicillin and 100 μg/ml streptomycin. Cultures were maintained at 37° C. in a humidified atmosphere of 5% CO2/95% air. A172 cells were seeded at 8,000 cells per well on 96-well plates. […] Caspase 3/7 activity was determined using a Caspase-Glo 3/7 Assay kit (Promega) according to the manufacturer's instructions. Luminescence for each sample well on the plate was measured using a Cytation 3 plate reader (BioTek, Winooski, VT). Activity was calculated relative to 0.1% DMSO control.

[3] = tested on: SH-SY5Y Neuroblastoma Cells Exposed to Staurosporine; test: ATP levels in cells exposed to staurosporine (CellTiter-Glo); type: cell-based, human; conditions: peptide 10 μM plus staurosporine (40 μM), 18-20 hours; <100% cytoprotective, >100% synergistic
Experimental: Peptides were initially prepared as 10 mM stock in DMSO and tested at a final concentration of 10 μM (0.1% DMSO). […] […] CellTiter-Glo® Assay kit was purchased from Promega. SH-SY5Y human neuroblastoma cell line was purchased from American Type Culture Collection (Manassas, VA) and licensed from Memorial Sloan-Kettering Cancer Center (New York, NY). SH-SY5Y cells were grown in DMEM/F12 medium supplemented with 10% FBS with 100 IU/ml penicillin and 100 μg/ml streptomycin. Cultures were maintained at 37° C. in a humidified atmosphere of 5% CO2/95% air. SH-SY5Y cells were seeded at 30,000 cells per well on 96-well plates. […] ATP levels were determined using a CellTiter-Glo Assay kit (Promega) according to the manufacturer's instructions. Luminescence for each sample well on the plate was measured using a Cytation 3 plate reader (BioTek, Winooski, VT). […] A value less than 100% is indicative of a cytoprotective effect, while a value greater than 100% is indicative of a synergistic effect on viability.

3T3-L1 Mouse Adipocytes = test: Free fatty acid levels in cultured mouse adipocytes stimulated with isoproterenol; type: cell-based; conditions: peptide 10 μM, 20-22 hours then 3 hours with 1 nM isoproterenol; relative to isoproterenol treated cells
Experimental: The effect of the peptides on fatty acid metabolism can be assessed using an assay of free fatty acid levels in cultured cells such as mouse adipocytes. Peptides were initially prepared as 10 mM stock in DMSO and used at a final concentration of 10 μM (0.1% DMSO). […] Mouse 3T3-L1 cells purchased from ZenBio were seeded at 3,000 cells per well in 96-well plates in Pre-adipocyte Medium (Zen-Bio) and grown to confluence at 37° C. in a humidified atmosphere of 5% CO2/95% air. Two days after confluence, cells were placed in Adipocyte Differentiation Medium (Zen-Bio) and cultured for three additional days at 37° C. in a humidified atmosphere of 5% CO2/95% air. The culture media was then replaced with Adipocyte Maintenance Medium (Zen-Bio) and the cells maintained for an additional 9-12 days at 37° C. in a humidified atmosphere of 5% CO2/95% air with partial medium replacement every other day. Following 12-15 days of differentiation, test peptides were added at a final concentration of 10 μM in 0.1% DMSO and incubated for 20-22 hours in Adipocyte Maintenance Medium at 37° C. in a humidified atmosphere of 5% CO2/95% air. After 20-22 hours, 1 nM isoproterenol was added to all wells except untreated controls and test peptides were replenished. Insulin at 100 nM was added to control wells. Cells were incubated for 3 hours in Assay Buffer (Zen-Bio) at 37° C. in a humidified atmosphere of 5% CO2/95% air. Free fatty acid concentrations in the media were determined using a Free Fatty Acid Assay kit (Zen-Bio) according to the manufacturer's instructions using a Cytation 3 plate reader at 540 nm (BioTek, Winooski, VT). Absorbance values were corrected for untreated background and expressed relative to isoproterenol treated cells. Treatment with isoproterenol (1 nM) alone was used as the free fatty acid level stimulatory control. The relative standard deviation of the isoproterenol control was <10%. […] Free fatty acid levels for insulin (100 nM) treatment were <5% of the isoproterenol control value.

Compound: MAGVIRGVLVL [compound 8]
- ATP Levels, % Control [1]: 101.1%
- Caspase 3/7 Activity, Percent of Control Activity [2]: 86.7%
- Percent of ATP Reduction Induced by Control [3]: 92.6%
- Free Fatty Acid Levels, MEAN %ISO (3T3-L1 Mouse Adipocytes): 76.9%

Compound: CC[C@H](C)[C@H](NC(=O)[C@H](CC(C)C)NC(=O)[C@H](C)NC(=O)[C@@H](N)CCSC)C(=O)N[C@@H](CC(=O)O)C(=O)N[C@H](C(=O)N[C@@H](CC(C)C)C(=O)N[C@H](C(=O)N[C@@H](CC(C)C)C(=O)N[C@H](C)C(=O)O)C(C)C)[C@@H](C)O [compound 5] (H-MALIDTLVL[dA]-OH; N-terminus and C-terminus assumed)
- ATP Levels, % Control [1]: 97.1%
- Caspase 3/7 Activity, Percent of Control Activity [2]: 76.2%
- Percent of ATP Reduction Induced by Control [3]: 106.1%
- Free Fatty Acid Levels, MEAN %ISO (3T3-L1 Mouse Adipocytes): 95.7%

Compound: CC[C@H](C)[C@H](NC(=O)[C@@H](NC(=O)[C@H](Cc1c[nH]cn1)NC(=O)[C@H](CCCNC(=N)N)NC(=O)[C@H](CC(=O)O)NC(=O)[C@H](Cc1ccc(O)cc1)NC(=O)[C@H](CC(C)C)NC(=O)[C@H](CC(C)C)NC(=O)[C@@H](NC(=O)[C@@H](N)Cc1c[nH]c2ccccc12)C(C)C)C(C)C)C(=O)NCC(=O)NCC(=O)N[C@@H](CO)C(=O)N[C@@H](CC(C)C)C(=O)N[C@@H](CS)C(=O)N[C@H](C(=O)N[C@H](C(=O)N[C@H](C(=O)N[C@@H](CCC(N)=O)C(=O)N[C@H](C(=O)N[C@@H](CCC(=O)O)C(=O)N[C@H](C)C(=O)N[C@@H](Cc1ccc(O)cc1)C(=O)O)C(C)C)C(C)C)C(C)C)C(C)C [compound 23] (H-WVLLYDRHVIGGSLCVVVQVE[dA]Y-OH; N-terminus and C-terminus assumed)
- ATP Levels, % Control [1]: 105.9%
- Caspase 3/7 Activity, Percent of Control Activity [2]: 104.3%
- Percent of ATP Reduction Induced by Control [3]: 69.6%
- Free Fatty Acid Levels, MEAN %ISO (3T3-L1 Mouse Adipocytes): 77.1%

Compound: RQWILHNGGMSFFC [compound 13]
- ATP Levels, % Control [1]: 101.2%
- Caspase 3/7 Activity, Percent of Control Activity [2]: 115.8%
- Percent of ATP Reduction Induced by Control [3]: 103.8%
- Free Fatty Acid Levels, MEAN %ISO (3T3-L1 Mouse Adipocytes): 74.0%

Compound: CC[C@H](C)[C@H](NC(=O)[C@@H](NC(=O)CNC(=O)[C@@H](C)NC(=O)[C@@H](N)CCSC)C(C)C)C(=O)N[C@@H](CCCNC(=N)N)C(=O)N[C@@H](C)C(=O)N[C@H](C(=O)N[C@@H](CC(C)C)C(=O)N[C@H](C(=O)N[C@@H](CC(C)C)C(=O)O)C(C)C)C(C)C [compound 10] (H-M[dA]GVIRAVLVL-OH; N-terminus and C-terminus assumed)
- ATP Levels, % Control [1]: 103.2%
- Caspase 3/7 Activity, Percent of Control Activity [2]: 82.6%
- Percent of ATP Reduction Induced by Control [3]: 90.4%
- Free Fatty Acid Levels, MEAN %ISO (3T3-L1 Mouse Adipocytes): 96.4%

Compound: CSCC[C@H](NC(=O)[C@H](CCCNC(=N)N)NC(=O)[C@H](CCCNC(=N)N)NC(=O)[C@@H](N)CCCNC(=N)N)C(=O)N[C@@H](Cc1ccccc1)C(=O)N[C@@H](CO)C(=O)N[C@@H](CS)C(=O)N[C@@H](Cc1ccc(O)cc1)C(=O)N[C@H](C)C(=O)N[C@@H](Cc1ccc(O)cc1)C(=O)O [compound 19] (H-RRRMFSCY[dA]Y-OH; N-terminus and C-terminus assumed)
- ATP Levels, % Control [1]: 106.7%
- Caspase 3/7 Activity, Percent of Control Activity [2]: 93.7%
- Percent of ATP Reduction Induced by Control [3]: 99.5%
- Free Fatty Acid Levels, MEAN %ISO (3T3-L1 Mouse Adipocytes): 64.0%

Compound: CC[C@H](C)[C@H](NC(=O)[C@H](CC(C)C)NC(=O)[C@H](CC(C)C)NC(=O)[C@@H](N)CCSC)C(=O)N[C@@H](CC(C)C)C(=O)N[C@H](C(=O)N[C@@H](CC(C)C)C(=O)N[C@H](C(=O)N[C@@H](CC(C)C)C(=O)N[C@H](C)C(=O)O)C(C)C)[C@@H](C)O [compound 3] (H-MLLILTLVL[dA]-OH; N-terminus and C-terminus assumed)
- ATP Levels, % Control [1]: 104.8%
- Caspase 3/7 Activity, Percent of Control Activity [2]: 90.9%
- Percent of ATP Reduction Induced by Control [3]: 102.7%
- Free Fatty Acid Levels, MEAN %ISO (3T3-L1 Mouse Adipocytes): 57.7%

Compound: CC[C@H](C)[C@H](NC(=O)[C@@H](NC(=O)CNC(=O)[C@@H](C)NC(=O)[C@@H](N)CCSC)C(C)C)C(=O)N[C@@H](CCCNC(=N)N)C(=O)NCC(=O)N[C@H](C(=O)N[C@@H](CC(C)C)C(=O)N[C@H](C(=O)N[C@@H](CC(C)C)C(=O)O)C(C)C)C(C)C [compound 9] (H-M[dA]GVIRGVLVL-OH; N-terminus and C-terminus assumed)
- ATP Levels, % Control [1]: 105.9%
- Caspase 3/7 Activity, Percent of Control Activity [2]: 89.3%
- Percent of ATP Reduction Induced by Control [3]: 95.1%
- Free Fatty Acid Levels, MEAN %ISO (3T3-L1 Mouse Adipocytes): 88.2%

Compound: CC[C@H](C)[C@H](NC(=O)[C@H](CC(C)C)NC(=O)[C@H](C)NC(=O)[C@@H](N)CCSC)C(=O)N[C@@H](CC(C)C)C(=O)N[C@H](C(=O)N[C@@H](CC(C)C)C(=O)N[C@H](C(=O)N[C@@H](CC(C)C)C(=O)N[C@H](C)C(=O)O)C(C)C)[C@@H](C)O [compound 4] (H-MALILTLVL[dA]-OH; N-terminus and C-terminus assumed)
- ATP Levels, % Control [1]: 102.2%
- Caspase 3/7 Activity, Percent of Control Activity [2]: 96.4%
- Percent of ATP Reduction Induced by Control [3]: 94.0%
- Free Fatty Acid Levels, MEAN %ISO (3T3-L1 Mouse Adipocytes): 71.3%

Compound: CC[C@H](C)[C@H](NC(=O)[C@@H](NC(=O)[C@H](Cc1c[nH]cn1)NC(=O)[C@H](CCCNC(=N)N)NC(=O)[C@H](CC(=O)O)NC(=O)[C@H](Cc1ccc(O)cc1)NC(=O)[C@H](CC(C)C)NC(=O)[C@H](CC(C)C)NC(=O)[C@@H](NC(=O)[C@@H](N)Cc1c[nH]c2ccccc12)C(C)C)C(C)C)C(=O)NCC(=O)NCC(=O)N[C@@H](CO)C(=O)N[C@@H](CC(C)C)C(=O)N[C@@H](CS)C(=O)N[C@H](C(=O)N[C@@H](CCC(N)=O)C(=O)N[C@H](C(=O)N[C@@H](CCC(N)=O)C(=O)N[C@H](C(=O)N[C@@H](CCC(=O)O)C(=O)N[C@H](C)C(=O)O)C(C)C)C(C)C)C(C)C [compound 25] (H-WVLLYDRHVIGGSLCVQVQVE[dA]-OH; N-terminus and C-terminus assumed)
- ATP Levels, % Control [1]: 106.9%
- Caspase 3/7 Activity, Percent of Control Activity [2]: 108.8%
- Percent of ATP Reduction Induced by Control [3]: 82.7%
- Free Fatty Acid Levels, MEAN %ISO (3T3-L1 Mouse Adipocytes): 91.6%
